In this assay the test system is AMPK. The assay is described as follows: AMPK activation assay (enzyme-linked immunosorbent assay). The assay is classed as cell-based. Put shortly:
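Kit-based immunoassay; compounds screened as activators; standard reagents and protocol.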

Experimental findings from patent publication US20150087673A1, “METHODS FOR USING AND BIOMARKERS FOR AMPK-ACTIVATING COMPOUNDS” (RIGEL PHARMACEUTICALS, INC., priority 2013, published 2015) are described below.

Bounds are passed on as bounds.

Regarding `O=C(Nc1ccc(N2CCOCC2)cc1)c1ccc(C(=O)N2CCN(Cc3ccc(F)cc3)CC2)cn1` [Compound 40, 5-(4-(4-fluorobenzyl)piperazine-1-carbonyl)-N-(4-morpholinophenyl)picolinamide], the EC50 was 1000 to 5000 nM.
The result for `N#Cc1ccc(CN2CCC(NC(=O)c3ccc(C(=O)NC4CCN(Cc5ccc(C#N)cc5)CC4)nn3)CC2)cc1` [Compound 386, N3,N6-bis(1-(4-cyanobenzyl)piperidin-4-yl)pyridazine-3,6-dicarboxamide] reads above 10000 nM; that for `CS(=O)(=O)c1ccc(OC2CCN(C(=O)c3ccc(C(=O)Nc4ccc(Oc5ccc(F)cc5)nc4)cn3)CC2)cc1` [Compound 235, N-(6-(4-fluorophenoxy)pyridin-3-yl)-6-(4-(4-(methylsulfonyl)phenoxy)piperidine-1-carbonyl)nicotinamide], below 500 nM.
The result for `COc1cccc(Oc2ccc(NC(=O)c3ccc(C(=O)N4CCN(Cc5ccc(F)cc5)CC4)cn3)cc2)c1` [Compound 57, 5-(4-(4-fluorobenzyl)piperazine-1-carbonyl)-N-(4-(3-methoxyphenoxy)phenyl)picolinamide] reads below 500 nM.
The value for `COc1ccc(C(=O)C2CCN(C(=O)c3ccc(C(=O)NC4CCN(Cc5ccc(C#N)cc5)CC4)nn3)CC2)cc1` [Compound 387, N-(1-(4-cyanobenzyl)piperidin-4-yl)-6-(4-(4-methoxybenzoyl)piperidine-1-carbonyl)pyridazine-3-carboxamide] was below 500 nM; that for `COc1ccc(C(=O)C2CCN(C(=O)c3ccc(C(=O)N[C@@H]4CCN(Cc5ccc(C#N)cc5)C[C@H]4F)cn3)CC2)cc1` (relative stereo) [Compound 349, N-((trans)-1-(4-cyanobenzyl)-3-fluoropiperidin-4-yl)-6-(4-(4-methoxybenzoyl)piperidine-1-carbonyl)nicotinamide] was below 500 nM.
`O=C(c1ccc(N2CCC(Oc3ccc(C(F)(F)F)cc3)CC2)nc1)N1CCN(Cc2ccc(F)cc2)CC1` [Compound 187, (4-(4-fluorobenzyl)piperazin-1-yl)(6-(4-(4-(trifluoromethyl)phenoxy)piperidin-1-yl)pyridin-3-yl)methanone] registered an EC50 of 1000 to 5000 nM.
The value for `CS(=O)(=O)c1ccc(C(=O)C2CCN(C(=O)c3ccc(C(=O)NC4CCN(Cc5ccc(F)cc5)CC4)cn3)CC2)cc1` [Compound 222, N-(1-(4-fluorobenzyl)piperidin-4-yl)-6-(4-(4-(methylsulfonyl)benzoyl)piperidine-1-carbonyl)nicotinamide] was 1000 to 5000 nM; that for `N#Cc1ccc(CN2CCC(NC(=O)c3ccc(C(=O)N4CCC(Oc5ccc(SC(F)(F)F)cc5)CC4)cn3)CC2)cc1` [Compound 410, N-(1-(4-cyanobenzyl)piperidin-4-yl)-5-(4-(4-(trifluoromethylthio)phenoxy)piperidine-1-carbonyl)picolinamide] was below 500 nM.
`COc1ccc(CN2CCC(NC(=O)c3ccc(C(=O)N4CCN(Cc5ccc(C#N)cc5)CC4)cn3)CC2)cc1` [Compound 285, 5-(4-(4-cyanobenzyl)piperazine-1-carbonyl)-N-(1-(4-methoxybenzyl)piperidin-4-yl)picolinamide] returned an EC50 below 500 nM.
The result for `CC(=O)c1ccc(Oc2ccc(NC(=O)c3ccc(C(=O)N4CCC(Oc5ccc(S(C)(=O)=O)cc5)CC4)nc3)cn2)cc1` [Compound 485, N-(6-(4-acetylphenoxy)pyridin-3-yl)-6-(4-(4-(methylsulfonyl)phenoxy)piperidine-1-carbonyl)nicotinamide] reads below 500 nM.
The value for `COc1ccc(CN2CCC(N(C)C(=O)c3ccc(C(=O)N4CCC(C(=O)c5ccc(OC)cc5)CC4)nc3)CC2)cc1` [Compound 484, 6-(4-(4-methoxybenzoyl)piperidine-1-carbonyl)-N-(1-(4-methoxybenzyl)piperidin-4-yl)-N-methylnicotinamide] was below 500 nM; that for `N#Cc1ccc(CNC(=O)c2ccc(-c3ccc(C(=O)N4CCN(Cc5ccc(F)cc5)CC4)cn3)cc2)cc1` [Compound 35, (6-(4-(4-cyanobenzylcarbamoyl)phenyl)pyridin-3-yl)(4-(4-fluorobenzyl)piperazin-1-yl)methanone] was 500 to 1000 nM; that for `O=C(c1cccc(C(=O)N2CCN(c3ccccc3)CC2)n1)N1CCN(Cc2ccc(F)cc2)CC1` [Compound 94, (4-(4-fluorobenzyl)piperazin-1-yl)(6-(4-phenylpiperazine-1-carbonyl)pyridin-2-yl)methanone] was above 10000 nM.
The result for `Cc1cc(CN2CCN(C(=O)c3ccc(C(=O)NC4CCN(Cc5ccccc5)CC4)nc3)CC2)no1` [Compound 85, N-(1-benzylpiperidin-4-yl)-5-(4-((5-methylisoxazol-3-yl)methyl)piperazine-1-carbonyl)picolinamide] reads 1000 to 5000 nM; that for `N#Cc1ccc(CN2CCC(NC(=O)c3ccc(C(=O)N4CCN(C(=O)c5ccc(C(=O)NC6CCN(Cc7ccc(C#N)cc7)CC6)nc5)CC4)cn3)CC2)cc1` [Compound 75, 5,5′-(piperazine-1,4-diylbis(oxomethylene))bis(N-(1-(4-cyanobenzyl)piperidin-4-yl)picolinamide)], 1000 to 5000 nM.
The compound `O=C(c1ccc(Nc2ccc(-c3ccccc3)cc2)nc1)N1CCN(Cc2ccc(F)cc2)CC1` [Compound 37, (6-(4-phenylphenylamino)pyridin-3-yl)(4-(4-fluorobenzyl)piperazin-1-yl)methanone] gave an EC50 of 5000 to 10000 nM.
As to `CC(=O)Nc1cccc(OC2CCN(C(=O)c3ccc(C(=O)NC4CCN(Cc5cccc(OC(F)(F)F)c5)CC4)cn3)CC2)c1` [Compound 429, 6-(4-(3-acetamidophenoxy)piperidine-1-carbonyl)-N-(1-(3-(trifluoromethoxy)benzyl)piperidin-4-yl)nicotinamide], the EC50 lay in the range of 500 to 1000 nM.
For `N#Cc1ccc(CN2CCC(NC(=O)c3ccc(C(=O)N4CCC(C(=O)c5ccc(N6CCOCC6)cc5)CC4)cn3)CC2)cc1` [Compound 376, N-(1-(4-cyanobenzyl)piperidin-4-yl)-5-(4-(4-morpholinobenzoyl)piperidine-1-carbonyl)picolinamide], the half-maximal effective concentration (EC50) is below 500 nM.
Compound `COc1ccc(C(=O)C2CCN(C(=O)c3ccc(C(=O)N[C@H]4CCN(Cc5ccc(C#N)cc5)C[C@@H]4F)cn3)CC2)cc1` [Compound 453, N-((3S,4S)-1-(4-cyanobenzyl)-3-fluoropiperidin-4-yl)-6-(4-(4-methoxybenzoyl)piperidine-1-carbonyl)nicotinamide] returned an EC50 below 500 nM.
The value for `N#Cc1ccc(CN2CCC(NC(=O)c3ccc(C(=O)N4CCC(Oc5cccc(NC(=O)C6CC6)c5)CC4)nc3)CC2)cc1` [Compound 431, N-(1-(4-cyanobenzyl)piperidin-4-yl)-6-(4-(3-(cyclopropanecarboxamido)phenoxy)piperidine-1-carbonyl)nicotinamide] was 500 to 1000 nM.
The result for `O=C(Nc1ccc(Oc2ccc(F)cc2)cc1)c1ccc(C(=O)N2CCN(Cc3ccc(F)cc3)CC2)cn1` [Compound 60, 5-(4-(4-fluorobenzyl)piperazine-1-carbonyl)-N-(4-(4-fluorophenoxy)phenyl)picolinamide] reads below 500 nM; that for `N#Cc1cccc(-c2ccc(NC(=O)c3ccc(C(=O)N4CCN(Cc5ccc(F)cc5)CC4)cn3)cc2)c1` [Compound 32, N-(4-(3-cyanophenyl)phenyl)-5-(4-(4-fluorobenzyl)piperazine-1-carbonyl)picolinamide], 500 to 1000 nM; that for `COc1ccc(C(=O)C2CCN(C(=O)c3ccc(C(=O)N[C@H]4CC[C@@H](Oc5ccc(C(F)(F)F)cc5)CC4)nc3)CC2)cc1` [Compound 192, 5-(4-(4-methoxybenzoyl)piperidine-1-carbonyl)-N-((cis)-4-(4-(trifluoromethyl)phenoxy)cyclohexyl) picolinamide], below 500 nM.
The value for `N#Cc1ccc(CN2CCC(NC(=O)c3ccc(C(=O)N4C5CCC4CC(Oc4ccc(C#N)cc4)C5)cn3)CC2)cc1` [Compound 280, N-(1-(4-cyanobenzyl)piperidin-4-yl)-5-((1R,3r,5S)-3-(4-cyanophenoxy)-8-azabicyclo[3.2.1]octane-8-carbonyl)picolinamide] was below 500 nM.
As to `COc1ccc(CN2CCC(NC(=O)c3ccc(C(=O)N4CCC(C(=O)c5ccc(N6CCCC6)cc5)CC4)nc3)CC2)cc1F` [Compound 443, N-(1-(3-fluoro-4-methoxybenzyl)piperidin-4-yl)-6-(4-(4-(pyrrolidin-1-yl)benzoyl)piperidine-1-carbonyl)nicotinamide], the EC50 is below 500 nM.
On to `N#Cc1ccc(CN2CCC(NC(=O)c3ccc(C(=O)N4CCC(F)(C(=O)c5ccc(F)cc5)CC4)cn3)CC2)cc1` [Compound 68, N-(1-(4-cyanobenzyl)piperidin-4-yl)-5-(4-(4-fluoro-4-fluorobenzoyl)piperidine-1-carbonyl)picolinamide], for which the EC50 is below 500 nM.
The value for `CC(c1ccccc1)N1CCC(NC(=O)c2ccc(C(=O)N3CCN(Cc4ccc(F)cc4)CC3)cn2)CC1` (centres unmarked) [Compound 18, 5-(4-(4-fluorobenzyl)piperazine-1-carbonyl)-N-(1-(1-phenylethyl)piperidin-4-yl)picolinamide] was below 500 nM.
The value for `O=C(NC1CCN(Cc2ccc(F)cc2)CC1)c1ccc(C(=O)N2CCC(Oc3ccc(C(F)(F)F)cc3)CC2)cn1` [Compound 179, N-(1-(4-fluorobenzyl)piperidin-4-yl)-5-(4-(4-(trifluoromethyl)phenoxy)piperidine-1-carbonyl)picolinamide] was below 500 nM.
The result for `COc1ccc(-c2ccc(NC(=O)c3ccc(C(=O)N4CCN(Cc5ccc(F)cc5)CC4)cn3)cc2)cc1` [Compound 29, N-(4-(4-methoxyphenyl)phenyl)-5-(4-(4-fluorobenzyl)piperazine-1-carbonyl)picolinamide] reads 500 to 1000 nM; that for `CN1CCN(c2ccc(C(=O)C3CCN(C(=O)c4ccc(C(=O)NC5CCN(Cc6ccc(OC(F)(F)F)cc6)CC5)cn4)CC3)cc2)CC1` [Compound 244, 6-(4-(4-(4-methylpiperazin-1-yl)benzoyl)piperidine-1-carbonyl)-N-(1-(4-(trifluoromethoxy)benzyl)piperidin-4-yl)nicotinamide], 5000 to 10000 nM; that for `CC(=O)c1ccc(OC2CCN(C(=O)c3ccc(C(=O)NC4CCN(Cc5ccc(F)cc5)CC4)cn3)CC2)cc1` [Compound 391, 6-(4-(4-acetylphenoxy)piperidine-1-carbonyl)-N-(1-(4-fluorobenzyl)piperidin-4-yl)nicotinamide], below 500 nM.
